Data from patent US11572590B2, “Methods for evaluating tumor cell spheroids using 3D microfluidic cell culture device” (Dana-Farber Cancer Institute, Inc., priority 2017, dated 2023).
Read-outs that look alike come from different tables or passages of the source.

Tests used:
Assay in all cases: SelectScreen Kinase Profiling, single point inhibition and IC50 for off-target kinases
Assay type in all cases: biochemical
[1] = biological target: T1, off-target kinases (Homo sapiens, UniProt Q92630); conditions: DYRK2, LanthaScreen Binding
T1 sequence (Q92630 1-601): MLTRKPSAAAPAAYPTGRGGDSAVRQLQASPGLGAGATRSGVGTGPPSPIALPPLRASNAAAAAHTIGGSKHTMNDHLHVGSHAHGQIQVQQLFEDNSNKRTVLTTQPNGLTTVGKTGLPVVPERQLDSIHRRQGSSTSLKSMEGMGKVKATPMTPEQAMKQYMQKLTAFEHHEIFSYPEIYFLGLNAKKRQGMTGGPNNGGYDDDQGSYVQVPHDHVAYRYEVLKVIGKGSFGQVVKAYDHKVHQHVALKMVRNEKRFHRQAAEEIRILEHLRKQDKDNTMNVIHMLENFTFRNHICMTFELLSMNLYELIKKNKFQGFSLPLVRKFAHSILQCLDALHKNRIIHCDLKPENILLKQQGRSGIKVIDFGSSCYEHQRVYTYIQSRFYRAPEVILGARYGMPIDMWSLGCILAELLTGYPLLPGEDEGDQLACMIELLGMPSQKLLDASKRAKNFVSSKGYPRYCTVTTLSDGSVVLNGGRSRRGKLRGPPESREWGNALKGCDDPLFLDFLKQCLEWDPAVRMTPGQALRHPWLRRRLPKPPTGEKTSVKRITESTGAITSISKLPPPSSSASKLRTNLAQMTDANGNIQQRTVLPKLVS

[2] = biological target: off-target kinases (Homo sapiens, UniProt P10721, D820E); conditions: KIT D820E, mutant y, LanthaScreen Binding
[3] = biological target: off-target kinases (Homo sapiens, UniProt P35968); conditions: KDR (VEGFR2), ATP Km app, ZLYTE
[4] = biological target: T2, off-target kinases (Homo sapiens, UniProt O00444); conditions: PLK4, LanthaScreen Binding
T2 sequence (O00444 1-970): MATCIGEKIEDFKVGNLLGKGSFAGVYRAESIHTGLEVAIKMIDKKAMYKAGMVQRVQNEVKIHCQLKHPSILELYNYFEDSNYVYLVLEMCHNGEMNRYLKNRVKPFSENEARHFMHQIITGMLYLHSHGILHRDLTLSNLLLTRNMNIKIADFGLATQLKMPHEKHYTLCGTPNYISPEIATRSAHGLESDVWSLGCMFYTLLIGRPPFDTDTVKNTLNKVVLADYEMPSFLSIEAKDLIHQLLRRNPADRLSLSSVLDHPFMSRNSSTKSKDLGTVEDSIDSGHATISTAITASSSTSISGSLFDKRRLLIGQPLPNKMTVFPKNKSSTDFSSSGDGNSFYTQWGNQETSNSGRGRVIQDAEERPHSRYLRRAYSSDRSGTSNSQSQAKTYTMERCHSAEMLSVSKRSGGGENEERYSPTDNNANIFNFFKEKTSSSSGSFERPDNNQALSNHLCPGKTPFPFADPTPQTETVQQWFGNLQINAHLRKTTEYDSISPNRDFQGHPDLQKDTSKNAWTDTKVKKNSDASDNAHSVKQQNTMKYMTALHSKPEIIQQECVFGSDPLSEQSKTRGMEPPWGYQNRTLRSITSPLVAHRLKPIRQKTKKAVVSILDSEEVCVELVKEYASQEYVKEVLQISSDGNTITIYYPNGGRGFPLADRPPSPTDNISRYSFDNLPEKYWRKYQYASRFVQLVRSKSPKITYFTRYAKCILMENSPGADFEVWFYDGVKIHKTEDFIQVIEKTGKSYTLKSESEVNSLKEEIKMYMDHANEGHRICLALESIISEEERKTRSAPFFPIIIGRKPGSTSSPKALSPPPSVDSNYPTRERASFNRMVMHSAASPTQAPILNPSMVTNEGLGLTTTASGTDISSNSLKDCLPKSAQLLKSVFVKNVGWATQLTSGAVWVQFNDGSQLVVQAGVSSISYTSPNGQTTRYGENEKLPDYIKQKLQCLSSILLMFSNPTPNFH

Chain of off-target kinases (Homo sapiens, UniProt P35968) (P35968 20-1356): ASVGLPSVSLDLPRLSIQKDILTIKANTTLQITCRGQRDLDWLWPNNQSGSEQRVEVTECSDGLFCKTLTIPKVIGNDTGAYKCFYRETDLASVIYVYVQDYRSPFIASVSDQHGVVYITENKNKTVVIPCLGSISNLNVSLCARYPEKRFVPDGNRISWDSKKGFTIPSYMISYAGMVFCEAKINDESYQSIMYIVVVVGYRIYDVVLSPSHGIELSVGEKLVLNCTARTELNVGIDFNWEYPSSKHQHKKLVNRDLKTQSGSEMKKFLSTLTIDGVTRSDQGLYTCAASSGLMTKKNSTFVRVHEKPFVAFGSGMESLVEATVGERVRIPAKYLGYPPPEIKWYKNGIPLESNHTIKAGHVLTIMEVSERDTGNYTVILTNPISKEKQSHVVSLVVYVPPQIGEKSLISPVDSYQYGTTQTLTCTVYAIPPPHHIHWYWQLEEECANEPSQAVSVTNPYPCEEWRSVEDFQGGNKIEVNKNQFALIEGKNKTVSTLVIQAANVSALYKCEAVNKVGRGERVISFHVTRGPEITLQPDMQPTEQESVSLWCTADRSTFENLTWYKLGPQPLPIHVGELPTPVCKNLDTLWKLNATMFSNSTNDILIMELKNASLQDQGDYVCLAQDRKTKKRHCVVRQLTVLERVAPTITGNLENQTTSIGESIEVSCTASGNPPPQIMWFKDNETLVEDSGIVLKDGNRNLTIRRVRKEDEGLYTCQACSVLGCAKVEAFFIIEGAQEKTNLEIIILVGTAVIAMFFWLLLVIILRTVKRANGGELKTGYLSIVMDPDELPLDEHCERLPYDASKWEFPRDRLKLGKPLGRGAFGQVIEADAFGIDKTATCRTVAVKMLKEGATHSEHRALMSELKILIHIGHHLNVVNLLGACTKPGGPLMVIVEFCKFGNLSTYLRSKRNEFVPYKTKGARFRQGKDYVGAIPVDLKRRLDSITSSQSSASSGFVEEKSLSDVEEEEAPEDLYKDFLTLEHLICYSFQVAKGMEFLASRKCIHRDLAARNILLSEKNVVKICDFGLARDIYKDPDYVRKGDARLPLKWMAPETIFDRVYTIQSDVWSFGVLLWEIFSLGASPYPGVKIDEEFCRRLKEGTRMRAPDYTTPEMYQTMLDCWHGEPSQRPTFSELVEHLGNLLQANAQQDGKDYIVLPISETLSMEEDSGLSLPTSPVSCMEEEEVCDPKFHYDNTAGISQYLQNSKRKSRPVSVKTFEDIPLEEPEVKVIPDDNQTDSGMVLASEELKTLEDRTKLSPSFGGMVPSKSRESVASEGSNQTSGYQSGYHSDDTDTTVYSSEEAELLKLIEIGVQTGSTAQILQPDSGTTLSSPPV
Chain of off-target kinases (Homo sapiens, UniProt P10721, D820E) (P10721 26-976 D820E): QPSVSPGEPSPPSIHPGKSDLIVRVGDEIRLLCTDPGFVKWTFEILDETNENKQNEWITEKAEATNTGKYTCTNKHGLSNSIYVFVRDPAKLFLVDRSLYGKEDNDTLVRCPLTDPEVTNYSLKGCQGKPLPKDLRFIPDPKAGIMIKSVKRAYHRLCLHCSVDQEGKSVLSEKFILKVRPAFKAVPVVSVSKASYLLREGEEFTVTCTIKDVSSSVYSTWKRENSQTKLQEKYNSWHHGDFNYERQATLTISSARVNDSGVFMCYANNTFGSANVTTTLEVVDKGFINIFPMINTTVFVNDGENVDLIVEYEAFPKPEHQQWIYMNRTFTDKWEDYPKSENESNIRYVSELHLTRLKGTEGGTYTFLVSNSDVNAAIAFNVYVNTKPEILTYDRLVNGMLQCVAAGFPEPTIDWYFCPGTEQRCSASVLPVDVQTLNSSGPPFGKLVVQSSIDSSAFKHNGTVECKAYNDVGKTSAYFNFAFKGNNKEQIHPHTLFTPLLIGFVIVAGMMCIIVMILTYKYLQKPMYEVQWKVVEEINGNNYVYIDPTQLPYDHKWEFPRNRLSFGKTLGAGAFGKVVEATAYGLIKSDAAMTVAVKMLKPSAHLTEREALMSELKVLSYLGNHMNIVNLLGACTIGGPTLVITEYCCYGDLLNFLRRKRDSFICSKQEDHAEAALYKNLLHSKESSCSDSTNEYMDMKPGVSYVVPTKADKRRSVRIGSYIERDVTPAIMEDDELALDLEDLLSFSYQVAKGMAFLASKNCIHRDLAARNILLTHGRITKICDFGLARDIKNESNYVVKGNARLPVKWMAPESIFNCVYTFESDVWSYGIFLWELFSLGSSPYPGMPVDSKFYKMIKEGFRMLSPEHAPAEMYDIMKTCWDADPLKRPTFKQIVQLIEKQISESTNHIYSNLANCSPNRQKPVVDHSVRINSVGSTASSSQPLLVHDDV

`N#Cc1cc(-c2ncnc(Nc3ccc(N4CCN(C5COC5)CC4)cc3)n2)ccc1OC1CCOCC1` [Compound 1, 5-(4-((4-(4-(oxetan-3-yl)piperazin-1-yl)phenyl)amino)-1,3,5-triazin-2-yl)-2-((tetrahydro-2H-pyran-4-yl)oxy)benzonitrile] was tested, and the inhibition ([1]; read-out: % Inhibition 1) was 54%, the inhibition ([1]; read-out: % Inhibition 2) was 53% and the inhibition ([1]; read-out: % Inhibition Avg) was 54%. For the same molecule, the inhibition ([2]; read-out: % Inhibition 1) was 18%, the inhibition ([2]; read-out: % Inhibition 2) was 19% and the inhibition ([2]; read-out: % Inhibition Avg) was 18%. The inhibition ([3]; read-out: % Inhibition 1) was 51%, the inhibition ([3]; read-out: % Inhibition 2) was 53% and the inhibition ([3]; read-out: % Inhibition Avg) was 52%. The inhibition ([4]; read-out: % Inhibition 1) was 96%, the inhibition ([4]; read-out: % Inhibition 2) was 95% and the inhibition ([4]; read-out: % Inhibition Avg) was 96%.
